Data taken from patent US12714707B2, “Combination cancer therapy using CHK inhibitor” (SHANGHAI HUAYU BIOTECHNOLOGY CO., LTD., priority 2020, dated 2026).

Key:
Assay type in all cases: cell-based
[1] = test system: MCF7F cells (fulvestrant-resistant); test: MTT cell viability / cell death rate, MCF7F cells (Example 1); conditions: 48 hours; for Cell Death Rate/% mean: mean of triplicate; for Cell Death Rate/% 1: replicate 1; for Cell Death Rate/% 2: replicate 2; for Cell Death Rate/% 3: replicate 3
Description: MCF7F cells (fulvestrant-resistant) were maintained at 37° C. in 5% CO2 in RPMI 1640 medium (10-040-CV, Coming cellgro) supplemented with 10% FBS (10270-106, GIBCO), 1% penicillin and 1% streptomycin, and used before the 10th subculture, wherein these cells were in house prepared by culturing MCF7 cells (TCHu 74, National Collection of Authenticated Cell Cultures) in medium containing 1 μM fulvestrant for approximately 18 months (Hong Liu et al., Cooperative effect of gefitinib and fumitremorgin c on cell growth and chemosensitivity in estrogen receptor alpha negative fulvestrant-resistant MCF-7 cells. Int J Oncol. 2006. 29(5):1237-1246).
(§1) Briefly, the MCF7F cells were cultured at 37° C. in 5% CO2 in RPMI 1640 medium supplemented with i) 10% FBS, ii) 1% penicillin and 1% streptomycin, and iii) AZD2281 (final concentration at 800 nM), ABT888 (final concentration at 800 nM), Compound 605B (final concentration at 25 nM), 605B+AZD2281 (final concentration at 25 nM and 800 nM), 605B+ABT888 (final concentration at 25 nM and 800 nM), or PBS (vehicle), for 48 hours. Then, cell viability was determined by a MTT assay. The test was done in triplicate.
(§2) Cell death rate was calculated by the following formula. Cell death rate=[1−(ODtest[…])]×100%
(§3) Cell death rates were analyzed using student's t-test, and group differences were deemed statistically significant when the p-value was lower than 0.05. Zheng-Jun Jin's Q value was calculated using the formula Q=EA+B/(EA+EB−EA×EB) to assess the combined effect of Compound 605B and the PARP inhibitor, wherein EA+B, EA, and EB referred to the cell death rates caused by the combined treatment, 605B treatment and PARP inhibitor treatment, respectively. A Q value higher than 1.15 meant a synergistic […] effect.

BT474 [2] = test: MTT cell death rate, BT474 cells, 605B with AZD2281 (Example 2); conditions: 48 hours; for Cell Death Rate/% 1: replicate 1; for Cell Death Rate/% 2: replicate 2; for Cell Death Rate/% 3: replicate 3
Description: as §2, §3
(§4) The combined use of Compound 605 and AZD2281 was further tested in other breast cancer cell lines, including BT474 (TCHu 143, National collection of Authenticated Cell Cultures), MCF7 (TCHu 74, National collection of Authenticated Cell Cultures), and MMTV-HER2 (a gift from Dr. Liguang-L, Shanghai Institute of Materia Medica, Chinese Academy of Sciences).
as §1, with “these” for “the MCF7F”, “and” for “and 1%”, “AZD2281” for “AZD2281 (final concentration at 800 nM), ABT888”, “nM),” for “nM), 605B+ABT888 (final concentration at 25 nM and 800 nM),”, “PBS,” for “PBS (vehicle),”

MCF7 [3] = test: MTT cell death rate, MCF7 cells, 605B with AZD2281 (Example 2); conditions: 48 hours; for Cell Death Rate/% 1: replicate 1; for Cell Death Rate/% 2: replicate 2; for Cell Death Rate/% 3: replicate 3
Description: as §2, §3, §4
as §1, with “these” for “the MCF7F”, “and” for “and 1%”, “AZD2281” for “AZD2281 (final concentration at 800 nM), ABT888”, “nM),” for “nM), 605B+ABT888 (final concentration at 25 nM and 800 nM),”, “PBS,” for “PBS (vehicle),”

MMTV-HER2 [4] = test: MTT cell death rate, MMTV-HER2 cells, 605B with AZD2281 (Example 2); conditions: 48 hours; for Cell Death Rate/% 1: replicate 1; for Cell Death Rate/% 2: replicate 2; for Cell Death Rate/% 3: replicate 3
Description: as §2, §3, §4
as §1, with “these” for “the MCF7F”, “and” for “and 1%”, “AZD2281” for “AZD2281 (final concentration at 800 nM), ABT888”, “nM),” for “nM), 605B+ABT888 (final concentration at 25 nM and 800 nM),”, “PBS,” for “PBS (vehicle),”

BT474 [5] = test: MTT cell death rate, BT474 cells, 605B with Rucaparib (Example 3); conditions: 48 hours; for Cell Death Rate/% 1: replicate 1; for Cell Death Rate/% 2: replicate 2; for Cell Death Rate/% 3: replicate 3
Description: as §2, §3
(§5) Compound 605B was tested with another PARP inhibitor, AG014699 (Rucaparib), for the inhibitory effects on breast tumor cell lines, including BT474, MCF7, and MMTV-HER2.
(§6) Briefly, these cells were cultured at 37° C. in 5% CO2 in RPMI 1640 medium supplemented with i) 10% FBS, ii) 1% penicillin and 1% streptomycin, and iii) AZD2281 (final concentration at 800 nM), Compound 605B (final concentration at 25 nM), 605B+AZD2281 (final concentration at 25 nM and 800 nM), or PBS, for 48 hours. Then, cell viability was determined by the MTT assay. The test was done in triplicate.

MCF7 [6] = test: MTT cell death rate, MCF7 cells, 605B with Rucaparib (Example 3); conditions: 48 hours; for Cell Death Rate/% 1: replicate 1; for Cell Death Rate/% 2: replicate 2; for Cell Death Rate/% 3: replicate 3
Description: as §2, §3, §5, §6

MMTV-HER2 [7] = test: MTT cell death rate, MMTV-HER2 cells, 605B with Rucaparib (Example 3); conditions: 48 hours; for Cell Death Rate/% 1: replicate 1; for Cell Death Rate/% 2: replicate 2; for Cell Death Rate/% 3: replicate 3
Description: as §2, §3, §5, §6

NC(=O)c1nnc(N[C@H]2CCCNC2)c2cc(-c3cccc(F)c3)sc12 [Compound 605B, 2-(3-fluorophenyl)-4-(3-piperidineamino)-thieno[2,3-d]pyridazine-7-carboxylic acid amide]
inhibitory effects on cells / cell death rates (in words) [1]: little inhibitory effects | Cell Death Rate/% mean ([1]; final concentration 25 nM): 4.97% | Cell Death Rate/% 1 ([1]; final concentration 25 nM): 5.03% | Cell Death Rate/% 2 ([1]; final concentration 25 nM): 5.22% | Cell Death Rate/% 3 ([1]; final concentration 25 nM): 4.67% | Cell Death Rate/% mean (BT474 [2]; final concentration 25 nM): 7.67% | Cell Death Rate/% 1 (BT474 [2]; final concentration 25 nM): 7.72% | Cell Death Rate/% 2 (BT474 [2]; final concentration 25 nM): 7.45% | Cell Death Rate/% 3 (BT474 [2]; final concentration 25 nM): 7.83% | Cell Death Rate/% mean (MCF7 [3]; final concentration 25 nM): 6.51% | Cell Death Rate/% 1 (MCF7 [3]; final concentration 25 nM): 6.51% | Cell Death Rate/% 2 (MCF7 [3]; final concentration 25 nM): 6.38% | Cell Death Rate/% 3 (MCF7 [3]; final concentration 25 nM): 6.72% | Cell Death Rate/% mean (MMTV-HER2 [4]; final concentration 25 nM): 8.50% | Cell Death Rate/% 1 (MMTV-HER2 [4]; final concentration 25 nM): 8.69% | Cell Death Rate/% 2 (MMTV-HER2 [4]; final concentration 25 nM): 8.33% | Cell Death Rate/% 3 (MMTV-HER2 [4]; final concentration 25 nM): 8.47% | Cell Death Rate/% mean (BT474 [5]; final concentration 25 nM): 8.47% | Cell Death Rate/% 1 (BT474 [5]; final concentration 25 nM): 8.49% | Cell Death Rate/% 2 (BT474 [5]; final concentration 25 nM): 8.24% | Cell Death Rate/% 3 (BT474 [5]; final concentration 25 nM): 8.67% | Cell Death Rate/% mean (MCF7 [6]; final concentration 25 nM): 8.41% | Cell Death Rate/% 1 (MCF7 [6]; final concentration 25 nM): 8.5% | Cell Death Rate/% 2 (MCF7 [6]; final concentration 25 nM): 8.39% | Cell Death Rate/% 3 (MCF7 [6]; final concentration 25 nM): 8.33% | Cell Death Rate/% mean (MMTV-HER2 [7]; final concentration 25 nM): 9.11% | Cell Death Rate/% 1 (MMTV-HER2 [7]; final concentration 25 nM): 9.13% | Cell Death Rate/% 2 (MMTV-HER2 [7]; final concentration 25 nM): 8.90% | Cell Death Rate/% 3 (MMTV-HER2 [7]; final concentration 25 nM): 9.29%

O=C(c1cc(Cc2n[nH]c(=O)c3ccccc23)ccc1F)N1CCN(C(=O)C2CC2)CC1 [AZD2281, Olaparib]
Cell Death Rate/% mean ([1]; final concentration 800 nM): 5.55% | Cell Death Rate/% 1 ([1]; final concentration 800 nM): 5.86% | Cell Death Rate/% 2 ([1]; final concentration 800 nM): 5.42% | Cell Death Rate/% 3 ([1]; final concentration 800 nM): 5.37% | Cell Death Rate/% mean (BT474 [2]; final concentration 800 nM): 5.28% | Cell Death Rate/% 1 (BT474 [2]; final concentration 800 nM): 5.47% | Cell Death Rate/% 2 (BT474 [2]; final concentration 800 nM): 5.1% | Cell Death Rate/% 3 (BT474 [2]; final concentration 800 nM): 5.27% | Cell Death Rate/% mean (MCF7 [3]; final concentration 800 nM): 5.34% | Cell Death Rate/% 1 (MCF7 [3]; final concentration 800 nM): 5.34% | Cell Death Rate/% 2 (MCF7 [3]; final concentration 800 nM): 5.39% | Cell Death Rate/% 3 (MCF7 [3]; final concentration 800 nM): 5.66% | Cell Death Rate/% mean (MMTV-HER2 [4]; final concentration 800 nM): 8.28% | Cell Death Rate/% 1 (MMTV-HER2 [4]; final concentration 800 nM): 8.34% | Cell Death Rate/% 2 (MMTV-HER2 [4]; final concentration 800 nM): 8.46% | Cell Death Rate/% 3 (MMTV-HER2 [4]; final concentration 800 nM): 8.05%

C[C@]1(c2nc3c(C(N)=O)cccc3[nH]2)CCCN1 [ABT888, Veliparib]
Cell Death Rate/% mean ([1]; final concentration 800 nM): 4.63% | Cell Death Rate/% 1 ([1]; final concentration 800 nM): 4.69% | Cell Death Rate/% 2 ([1]; final concentration 800 nM): 4.28% | Cell Death Rate/% 3 ([1]; final concentration 800 nM): 4.93%

CNCc1ccc(-c2[nH]c3cc(F)cc4c3c2CCNC4=O)cc1 [Rucaparib]
Cell Death Rate/% mean (BT474 [5]; final concentration 800 nM): 7.60% | Cell Death Rate/% 1 (BT474 [5]; final concentration 800 nM): 7.63% | Cell Death Rate/% 2 (BT474 [5]; final concentration 800 nM): 7.77% | Cell Death Rate/% 3 (BT474 [5]; final concentration 800 nM): 7.39% | Cell Death Rate/% mean (MCF7 [6]; final concentration 800 nM): 6.66% | Cell Death Rate/% 1 (MCF7 [6]; final concentration 800 nM): 6.88% | Cell Death Rate/% 2 (MCF7 [6]; final concentration 800 nM): 6.46% | Cell Death Rate/% 3 (MCF7 [6]; final concentration 800 nM): 6.65% | Cell Death Rate/% mean (MMTV-HER2 [7]; final concentration 800 nM): 7.50% | Cell Death Rate/% 1 (MMTV-HER2 [7]; final concentration 800 nM): 7.54% | Cell Death Rate/% 2 (MMTV-HER2 [7]; final concentration 800 nM): 7.68% | Cell Death Rate/% 3 (MMTV-HER2 [7]; final concentration 800 nM): 7.29%
